According to PMC10591915 (ACS chemical biology, 2023):
Like-named read-outs stand apart in the source and are kept apart here. Values belong to the compound of their own block, whether it stands above or below them.

Tests used:
[1] = values as provided by PubChem; ref PubChem; cited from earlier work
human CRBP1 [2] = biological target: T1, human CRBP1 (Homo sapiens, UniProt P09455); assay: fluorescence atROL-replacement assay (Ki determination); assay type: binding
T1 sequence (P09455 1-135): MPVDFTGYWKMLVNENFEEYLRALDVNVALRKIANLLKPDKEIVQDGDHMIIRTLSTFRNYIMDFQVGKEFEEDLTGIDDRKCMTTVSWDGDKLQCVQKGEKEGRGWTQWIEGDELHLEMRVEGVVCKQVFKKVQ

human CRBP1 [3] = biological target: T1, human CRBP1; conditions: abn-CBD reference value; cited from earlier work
albino mice = conditions: cited from earlier work

Structure (SMILES): COc1ccc(S(=O)(=O)N2CCC(O)(CO)CC2)c2c1CCCC2 [inhibitor 4, 4-(hydroxymethyl)-1-[(4-methoxy-5,6,7,8-tetrahydronaphthalen-1-yl)sulfonyl]piperidin-4-ol]
log P [1]: 1.4

Structure (SMILES): COCC1CCN(Cc2nc(C(c3ccccc3)c3ccccc3)no2)CC1 [inhibitor 3, 3-benzhydryl-5-[[4-(methoxymethyl)piperidin-1-yl]methyl]-1,2,4-oxadiazole]
log P [1]: 4.0

Structure (SMILES): C=C(C)[C@@H]1CCC(C)=C[C@H]1c1c(O)cc(O)cc1CCCCC [abn-CBD, 4-[(1R,6R)-3-Methyl-6-prop-1-en-2-ylcyclohex-2-en-1-yl]-5-pentylbenzene-1,3-diol]
Ki (human CRBP1 [3]): 0.067 µM
protection against light-induced retinal damage (albino mice): protecting against this condition in albino mice
log P [1]: 6.5

Structure (SMILES): Cc1ccc(C2(c3noc(CN(C)Cc4cccs4)n3)CCCC2)cc1 [inhibitor 1, N-methyl-N-[[3-[1-(4-methylphenyl)cyclopentyl]-1,2,4-oxadiazol-5-yl]methyl]-1-thiophen-2-ylmethanamine]
Ki (human CRBP1 [2]): 9 ± 4.1 µM
log P [1]: 4.9

More lines, main results first:

Ki (human CRBP1 [2]): 7.1 ± 2.7 µM
Structure (SMILES): CCN(CCn1cccn1)Cc1nc(C2(c3ccc(C)cc3)CCCC2)no1 [inhibitor 2, N-ethyl-N-[[3-[1-(4-methylphenyl)cyclopentyl]-1,2,4-oxadiazol-5-yl]methyl]-2-pyrazol-1-ylethanamine]
log P [1]: 4.0

Ki (human CRBP1 [2]): 10.6 ± 2.5 µM
Structure (SMILES): CC(c1cccs1)N(C)Cc1nc(C(c2ccccc2)c2ccccc2)no1 (stereo not shown) [inhibitor 5, N-[(3-benzhydryl-1,2,4-oxadiazol-5-yl)methyl]-N-methyl-1-thiophen-2-ylethanamine]
log P [1]: 5.0

Ki (human CRBP1 [2]): 10.7 ± 4.5 µM
Structure (SMILES): Cc1ccc(C2(c3noc(CN(C)Cc4cnn(C)c4)n3)CCCC2)cc1 [inhibitor 6, N-methyl-N-[[3-[1-(4-methylphenyl)cyclopentyl]-1,2,4-oxadiazol-5-yl]methyl]-1-(1-methylpyrazol-4-yl)methanamine]
log P [1]: 3.5
